Measured values: patent US7208503B2, “Angiogenesis inhibiting 5-substituted-1,2,4-thiadiazolyl derivatives” (Janssen Pharmaceutica N.V., priority 2000, dated 2007)

System: rat aortic ring microvessel formation
Experiment: rat aortic ring model of angiogenesis (microvessel formation)
Assay type: cell-based
Conditions: 192 h; in vitro rat aortic rings, microvessel area after eight days in culture, compared to vehicle-treated control rings; read-out: IC50 (inhibition of microvessel formation, angiogenesis inhibitory activity)
Protocol: Angiogenesis inhibitory activity was measured in vitro using the rat aortic ring model of angiogenesis as described by Nicosia, R. F. and Ottinetti in “Laboratory Investigation”, vol. 63, p. 115, 1990. The ability of compounds to inhibit microvessel formation was compared to vehicle-treated control rings. Quantitation (microvessel area) following eight days in culture was performed using an image analysis system, consisting of a light microscope, a CCD camera and an automated, custom-designed image analysis program as described by Nissanov, J., Tuman, R. W., Gruver, L. M., and Fortunato, J. M. in “Laboratory Investigation”, vol 73 (#5), p. 734, 1995. Compounds were tested at several concentrations for determination of inhibitory potency (IC50's).

Row | IC50 [µM] | SMILES
1 | < 0.01 | Cc1nsc(-c2ccc(N3CCN(c4cccc(C(F)(F)F)c4)CC3)cc2)n1 [Compound 2, 1-[4-(3-methyl-1,2,4-thiadiazol-5-yl)phenyl]-4-[3-(trifluoromethyl)phenyl]piperazine]
2 | < 0.01 | Cc1nsc(-c2ccc(N3CCN(c4cccc(C(F)(F)F)c4)CC3)nc2)n1 [Compound 6, 1-[5-(3-methyl-1,2,4-thiadiazol-5-yl)-2-pyridinyl]-4-[3-(trifluoromethyl)-phenyl]-piperazine]
